Drawing on patent US8343959B2, “N-phenyl-(piperazinyl or homopiperazinyl)-benzenesulfonamide or benzenesulfonyl-phenyl-(piperazine or homopiperazine) compounds suitable for treating disorders that respond to modulation of the serotonin 5-HT6 receptor” (Abbott GmbH & Co. KG, priority 2009, dated 2013), this text covers Ki for 15 compounds.

Where a name gives a salt, the structure may show the parent alone. A value given as a limit tells only on which side of the number the result lay.

In the first assay the target is T1, h-5-HT6 receptor (Homo sapiens, UniProt P50406).
T1 construct: expressed in transfected cells
T1 sequence (P50406 whole entry): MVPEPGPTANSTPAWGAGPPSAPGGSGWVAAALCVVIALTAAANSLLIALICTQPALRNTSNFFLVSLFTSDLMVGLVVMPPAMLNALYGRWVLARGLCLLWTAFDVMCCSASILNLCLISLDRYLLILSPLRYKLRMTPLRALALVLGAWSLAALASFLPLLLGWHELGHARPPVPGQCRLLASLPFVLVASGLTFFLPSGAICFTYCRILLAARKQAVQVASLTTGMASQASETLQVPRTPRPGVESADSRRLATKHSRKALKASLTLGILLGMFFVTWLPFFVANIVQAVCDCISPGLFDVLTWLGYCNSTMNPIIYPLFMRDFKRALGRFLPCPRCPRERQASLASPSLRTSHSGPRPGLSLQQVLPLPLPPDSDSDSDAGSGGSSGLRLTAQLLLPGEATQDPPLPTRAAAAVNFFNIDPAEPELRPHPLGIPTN
As to the kind of experiment: 5-HT6 receptor binding assay (displacement of [3H]-LSD).
Conditions: not given
The protocol:
Displacement of Radioligands Binding to The Following Cloned Human Receptors
Cells from stable clonal cell lines expressing the corresponding receptor (5-HT6, α1-adrenergic, dopamine D2 or histamine H1 receptors) were washed with PBS (w/o Ca^++, Mg^++) and harvested in PBS with 0.02% EDTA. The cells were collected by centrifugation at 500 g for 10 min. at 4° C., washed with PBS and centrifuged (500 g, 10 min. 4° C.). The pellets were stored at −80° C. until use. For membrane preparation, the thawed cell pellet was resuspended in ice-cold sucrose buffer (0.25 M sucrose, 10 mM Hepes (pH 7.4), 1 mM Phenylmethylsulfonyl fluoride (PMSF) in DMSO, 5 μg/ml Pepstatin-A, 3 mM EDTA, 0.025% Bacitracin) and homogenized with a Branson Sonifier W-250 (Settings: Timer 4; Output Control 3; Duty Cycle constant; 2 to 3 cycles). Cell disruption was checked with the aid of a microscope. Remaining unbroken cells were pelleted at 1.000 g for 10 min. at 4° C. The sucrose buffer supernatant was then centrifuged at 60.000 g for 1 h at 4° C. (Beckman Ultrazentrifuge XL 80). The pellet was resuspended in 30 ml ice-cold Tris buffer (20 mM TRIS (pH 7.4), 5 μg/ml Pepstatin A, 0.1 mM PMSF, 3 mM EDTA) by pipetting through a 10 ml serological pipet and centrifuged for 1 h at 4° C. at 60.000 g. A final resuspension was performed in a small volume of ice-cold Tris buffer (see above) by pressing through a serological pipet followed by ultrasonic treatment with a Branson Sonifier W-250 (Settings: Timer 1; Output Control 3; Duty Cycle constant; 1 cycle). Protein concentration was determined (BCA-Kit; Pierce) and aliquots stored at −80° C. or in liquid nitrogen for long-term storage.
All receptor binding experiments were carried out in the corresponding assay buffer in a total volume of 200 μl in the presence of various concentrations of test compound (10^−5 M to 10^−9 M, tenfold serial dilution, duplicate determinations). The assays were terminated by filtration on polyethylenimine (PEI 0.1% or 0.3%) presoaked Packard Unifilter Plates (GF/C or GF/B) with a Tomtec Machin U 96 well-plate harvester. After the plates had been dried for 2 h at 55° C. in a drying chamber scintillation cocktail (BetaPlate Scint; PerkinElmer) was added. Radioactivity was measured in a Microbeta Trilux two hours after the addition of the scintillation mixture. Data derived from liquid scintillation counting were analysed by iterative non-linear regression analysis with the use of the Statistical Analysis System (SAS): a program similar to “LIGAND” as described by Munson and Rodbard (Analytical Biochemistry 107, 220-239 (1980).
HEK293 cells stably expressing the h-5-HT6 receptor (NCBI Reference Sequence XM 001435) were cultured in RPMI1640 medium supplemented with 25 mM HEPES, 10% fetal calf serum and 1-2 mM glutamine. The membrane preparation was performed as described in section 1. […] Non-specific binding was defined with 1 μM methiothepin. The binding reaction was carried out for 3.5 h at room temperature. During the incubation, the plates were shaken on a plate shaker at 100 rpm and terminated by filtration on Packard Unifilter GF/C (0.1% PEI) plates, followed by 2 wash cycles with ice-cold 50 mM Tris-HCl, 5 mM CaCl2.
Data derived from liquid scintillation counting were analyzed by iterative non-linear regression analysis with the use of the Statistical Analysis System (SAS): a program similar to “LIGAND” as described by Munson and Rodbard (Anal. Biochem. 1980, 107, 220-239). Fitting was performed according to formulae described by Feldman (Anal. Biochem. 1972, 48, 317-338). IC50, nH and Ki values were expressed as geometrical mean.
Background: Loss of bound radioactivity is the signal in a displacement assay; it reports binding, not function.
As for `COc1ccc(S(=O)(=O)c2cccc(OC(F)F)c2)cc1N1CCNCC1` [Example 47, 1-[5-(3-Difluoromethoxy-benzenesulfonyl)-2-methoxy-phenyl]-piperazine hydrochloride], the Ki (as a rule, a dissociation constant, usually derived from enzyme kinetics or from competition with a known ligand) was below 10 nM.

Still in this assay, the particulars now being: membranes of HEK293 cells expressing h-5-HT6 receptor, 1 nM [3H]-LSD; read-out: Ki (5HT6).
For `CCCN(c1ccccc1OC(F)F)S(=O)(=O)c1ccc(OC)c(N2CCNCC2)c1` [Example 36, N-(2-Difluoromethoxy-phenyl)-4-methoxy-3-piperazin-1-yl-N-propyl-benzenesulfonamide hydrochloride], the inhibition constant (Ki) was below 10 nM. The same measure, in the same setting: then `COc1ccc(S(=O)(=O)Nc2ccccc2OC(F)F)cc1N1CCN(C)CC1` [Example 37, N-(2-Difluoromethoxy-phenyl)-4-methoxy-3-(4-methyl-piperazin-1-yl)-benzenesulfonamide hydrochloride], with below 10 nM; and `COc1ccc(NS(=O)(=O)c2ccc(OC)c(N3CCN(C)CC3)c2)cc1OC(F)F` [Example 38, N-(3-Difluoromethoxy-4-methoxy-phenyl)-4-methoxy-3-(4-methyl-piperazin-1-yl)-benzenesulfonamide hydrochloride], with below 10 nM; and `Cc1ccc(S(=O)(=O)N(c2ccccc2OC(F)F)C(C)C)cc1N1CCNCC1` [Example 39, N-(2-Difluoromethoxy-phenyl)-N-isopropyl-4-methyl-3-piperazin-1-yl-benzenesulfonamide hydrochloride], with below 500 nM. Same read-out and setting: the figure for `COc1ccc(S(=O)(=O)Nc2cccc3c2OC(F)(F)O3)cc1N1CCNCC1` [Example 40, N-(2,2-Difluoro-benzo[1,3]dioxol-4-yl)-4-methoxy-3-piperazin-1-yl-benzenesulfonamide hydrochloride] is below 50 nM. Same read-out and setting: then `O=S(=O)(Nc1ccccc1OC(F)F)c1cccc(N2CCNCC2)c1` [Example 41, N-(2-Difluoromethoxy-phenyl)-3-piperazin-1-yl-benzenesulfonamide hydrochloride], with below 10 nM; and `CN1CCN(c2cccc(S(=O)(=O)Nc3ccccc3OC(F)F)c2)CC1` [Example 42, N-(2-Difluoromethoxy-phenyl)-3-(4-methyl-piperazin-1-yl)-benzenesulfonamide hydrochloride], with below 10 nM. Regarding `CN(c1ccccc1OC(F)F)S(=O)(=O)c1cccc(N2CCNCC2)c1` [Example 43, N-(2-Difluoromethoxy-phenyl)-N-methyl-3-piperazin-1-yl-benzenesulfonamide hydrochloride], the inhibition constant Ki was below 500 nM. On the same count and under the same terms, then `O=S(=O)(c1cccc(OC(F)F)c1)c1cccc(N2CCNCC2)c1` [Example 45, 1-[3-(3-Difluoromethoxy-benzenesulfonyl)-phenyl]-piperazine hydrochloride], with below 10 nM; and `CN1CCN(c2cccc(S(=O)(=O)c3cccc(OC(F)F)c3)c2)CC1` [Example 46, 1-[3-(3-Difluoromethoxy-benzenesulfonyl)-phenyl]-4-methyl-piperazine hydrochloride], with below 10 nM; and `COc1ccc(S(=O)(=O)c2cccc(OC(F)F)c2)cc1N1CCN(C)CC1` [Example 48, 1-[5-(3-Difluoromethoxy-benzenesulfonyl)-2-methoxy-phenyl]-4-methyl-piperazine hydrochloride], with below 10 nM. The same measure, in the same setting: then `COc1ccc(S(=O)(=O)c2ccc(OC)c(N3CCNCC3)c2)cc1OC(F)F` [Example 49, 1-[5-(3-Difluoromethoxy-4-methoxy-benzenesulfonyl)-2-methoxy-phenyl]-piperazine hydrochloride], with below 10 nM; and `COc1ccc(S(=O)(=O)Nc2ccc(OC(F)F)c(OC(F)F)c2)cc1N1CCN(C)CC1` [Example 51, N-(3,4-Bis-difluoromethoxy-phenyl)-4-methoxy-3-(4-methyl-piperazin-1-yl)-benzenesulfonamide hydrochloride], with below 10 nM; and `Cc1ccc(S(=O)(=O)Nc2ccc(OC(F)F)c(OC(F)F)c2)cc1N1CCNCC1` [Example 52, N-(3,4-Bis-difluoromethoxy-phenyl)-4-methyl-3-piperazin-1-yl-benzenesulfonamide hydrochloride], with below 50 nM.
